Among the test systems are DLD-1; HCC 2998; KM-20L2; M19-MEL; MCF7; NCI-H226; NCI/ADR-RES; RXF 393; A498; ACHN; M14; TK-10; SR.
Common to all, as to experiment: DTP human tumour cell line panel, 48 h

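Dose response: 5 concentrations. Exposure: 48 h. Format: 96-well plates. Endpoint: linear interpolation; highest concentration if not reached. GI50 = concentration required for 50% inhibition of growth.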 The source made the active and inactive calls. Rule as the data show it: active = GI50 up to about 1.1 µM and inactive = higher.

Consider `CC1=NN(C(=O)c2ccc(C)cc2)C(=O)C1/N=N/c1ccccc1C(=O)O` (stereo not given), for which the GI50 in the assay with DLD-1, in the assay with HCC 2998, with KM-20L2, with M19-MEL, in the assay with MCF7 and in the assay on NCI-H226 was > 100 µM (inactive) throughout. Moreover, the GI50 in the assay with NCI/ADR-RES and with RXF 393 was > 100 µM (inactive) in each case.
For the compound `Cc1nn(-c2ccccc2)c(S)c1C(=O)c1ccccc1`, the GI50 in the assay on A498 was 21 µM (inactive); in the assay on ACHN, 39.9 µM (inactive); in the assay with DLD-1, 4.85 µM (inactive); in the assay on HCC 2998, 29.8 µM (inactive); with KM-20L2 it was 53 µM (inactive); in the assay on M14 it was 31.1 µM (inactive). Moreover, the GI50 in the assay on RXF 393 was 3.41 µM (inactive); in the assay on TK-10, 31.9 µM (inactive).
With `COc1cc2cc[n+]3c(C)c4cc(OC)c(OC)cc4c([O-])c3c2cc1OC`, the GI50 with A498 is > 100 µM (inactive); in the assay on ACHN, > 100 µM (inactive); in the assay on DLD-1, > 100 µM (inactive); with HCC 2998, > 100 µM (inactive); in the assay with KM-20L2 it was 53.2 µM (inactive); with M14 it was > 100 µM (inactive). In addition, the GI50 in the assay with M19-MEL was 46.6 µM (inactive); in the assay on NCI-H226 it was 33.1 µM (inactive); in the assay on RXF 393, 35.6 µM (inactive); in the assay with SR, 61 µM (inactive); with TK-10, > 100 µM (inactive).
On to `CCOC(=O)C1=C(C)N(C2OC(COC(C)=O)C(OC(C)=O)C(OC(C)=O)C2OC(C)=O)C(=O)NC1c1ccccc1` (stereo not given), for which the GI50 in the assay with A498, with ACHN, in the assay on DLD-1, in the assay with HCC 2998, in the assay with KM-20L2 and with M14 was > 100 µM (inactive) each time. Further, the GI50 in the assay with M19-MEL, in the assay on NCI-H226 and in the assay on SR was > 100 µM (inactive) each time.
Regarding `CSc1cc(=O)n2c3ccccc3c3ccnc1c32`, the GI50 is > 91.4 µM (inactive) in the assay with A498; 49.7 µM (inactive) in the assay with DLD-1; > 100 µM (inactive) in the assay with HCC 2998; > 61.8 µM (inactive) in the assay on KM-20L2; > 100 µM (inactive) in the assay with M19-MEL; 34.6 µM (inactive) in the assay on MCF7. Also, the GI50 in the assay with NCI-H226 is 14.2 µM (inactive); in the assay on NCI/ADR-RES, 73.8 µM (inactive); in the assay with RXF 393, > 49.2 µM (inactive).
With `CCOC(=O)c1ccc(N2C(=O)/C(=C/c3ccc(N(CCC#N)CCC#N)cc3)N=C2c2cc([N+](=O)[O-])ccc2Cl)cc1`, the GI50 in the assay with ACHN, in the assay with DLD-1, in the assay with HCC 2998, with KM-20L2, in the assay on M19-MEL and with NCI-H226 was > 100 µM (inactive) each time. The GI50 in the assay on RXF 393, with SR and in the assay on TK-10 was > 100 µM (inactive) each time.
On to `CC(C(=O)O)c1cnn(-c2ccccc2)c1-n1cccc1` (stereo not given), for which the GI50 with A498, with DLD-1, in the assay with HCC 2998, in the assay with KM-20L2, with M19-MEL and in the assay with MCF7 was > 100 µM (inactive) each time. For the same compound, the GI50 in the assay on NCI-H226, in the assay with NCI/ADR-RES and with RXF 393 was > 100 µM (inactive) in each case.
Regarding `OCC(O)COc1ccc(Br)cc1` (stereo not given), the GI50 in the assay on A498, in the assay with ACHN, in the assay on DLD-1, with HCC 2998, in the assay on KM-20L2 and with M14 was > 100 µM (inactive) throughout. Besides, the GI50 in the assay on NCI-H226 was > 100 µM (inactive); in the assay on RXF 393, > 100 µM (inactive); with SR, 0.0166 µM (active); in the assay with TK-10 it was > 100 µM (inactive).
Consider `O=C1C(Cl)N(c2ccc(Cl)cc2)C1c1c[nH]c2ccccc12` (stereo not given), for which the GI50 with KM-20L2 was 13.2 µM (inactive); with M14, 18.2 µM (inactive); with M19-MEL, 24.3 µM (inactive); with RXF 393 it was 20 µM (inactive); in the assay on SR, 9.18 µM (inactive); with TK-10, 19.8 µM (inactive).
`COc1ccc(CCN(C)C2CCC(C#N)(c3ccc(OC)c(OC)c3)CC2)cc1OC` (stereo not given): the GI50 in the assay on ACHN is > 100 µM (inactive); in the assay on DLD-1, > 100 µM (inactive); in the assay on HCC 2998, 34.8 µM (inactive); with KM-20L2 it was 48.4 µM (inactive); in the assay on M14, > 100 µM (inactive); in the assay with M19-MEL it was > 100 µM (inactive). For the same compound, the GI50 in the assay with NCI-H226, in the assay with RXF 393, in the assay on SR and in the assay with TK-10 was > 100 µM (inactive) throughout.
As for `COc1ccc(OC)c(/C=C/C(=O)C(C)(C)C)c1`, the GI50 with A498 was 28.1 µM (inactive); in the assay on ACHN, 19.9 µM (inactive); in the assay on DLD-1 it was 19.9 µM (inactive); in the assay with HCC 2998 it was 23.2 µM (inactive); in the assay with KM-20L2 it was 23.6 µM (inactive); with M14 it was 15.7 µM (inactive). Besides, the GI50 was 16.3 µM (inactive) in the assay on M19-MEL, 17.4 µM (inactive) with NCI-H226, 18.5 µM (inactive) in the assay with RXF 393 and 26.4 µM (inactive) in the assay with TK-10.
With `C[C@@H]1C[C@]2(C[C@@H](C)[C@H]3C(C[C@@]4(C)CCC[C@@H]5C6=C[C@H](CCC34C)OC6=CC(=O)OC5(C)C)O2)OC1=O` (stereo not given in full), the GI50 in the assay on A498, in the assay with DLD-1, in the assay with HCC 2998, with KM-20L2, with M19-MEL and with MCF7 was > 51.5 µM (inactive) each time. Further, the GI50 in the assay with NCI/ADR-RES was > 51.5 µM (inactive).
For `O=C1C(CO)=C[C@H](O)[C@H]2O[C@@H]12`, the GI50 is 234 µM (inactive) with A498; 113 µM (inactive) with DLD-1; 311 µM (inactive) in the assay with HCC 2998; 337 µM (inactive) with KM-20L2; 120 µM (inactive) with M19-MEL; 126 µM (inactive) with MCF7. In addition, the GI50 with NCI-H226 was 194 µM (inactive); in the assay on NCI/ADR-RES, 162 µM (inactive); in the assay with RXF 393 it was 153 µM (inactive).

For orientation: GI50 means the concentration that inhibits growth by half.

These data come from ChEMBL document CHEMBL1201862, “PubChem BioAssay data set” (2004).
